ChEMBL document CHEMBL4507302, “Data for DCP probe TP-020” (2021)

Experiments:
[1] = target: Serine/threonine-protein kinase 10 (Homo sapiens) (UniProt O94804); conditions: Compound concentration 1000.0 nM
[2] = target: SRSF protein kinase 2 (Homo sapiens) (UniProt P78362); conditions: Compound concentration 1000.0 nM
[3] = target: Activated CDC42 kinase 1 (Homo sapiens) (UniProt Q07912); conditions: Compound concentration 1000.0 nM
[4] = target: D(1A) dopamine receptor (Homo sapiens) (UniProt P21728); conditions: Compound concentration 10.0 uM
D(1A) dopamine receptor (Homo sapiens), sequence (P21728 whole entry): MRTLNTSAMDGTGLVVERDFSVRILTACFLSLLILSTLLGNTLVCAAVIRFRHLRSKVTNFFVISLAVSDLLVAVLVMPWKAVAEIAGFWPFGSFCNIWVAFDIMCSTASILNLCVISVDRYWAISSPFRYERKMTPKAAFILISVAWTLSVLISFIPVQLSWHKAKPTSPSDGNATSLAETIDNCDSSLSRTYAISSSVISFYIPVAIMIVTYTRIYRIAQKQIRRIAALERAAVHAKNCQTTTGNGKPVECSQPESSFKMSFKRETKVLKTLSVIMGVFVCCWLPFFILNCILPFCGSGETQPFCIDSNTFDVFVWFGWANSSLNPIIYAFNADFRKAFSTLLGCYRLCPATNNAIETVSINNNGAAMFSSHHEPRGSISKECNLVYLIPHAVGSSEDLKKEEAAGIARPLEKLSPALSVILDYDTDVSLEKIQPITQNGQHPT

[5] = target: Mitogen-activated protein kinase kinase kinase kinase 3 (Homo sapiens) (UniProt Q8IVH8); conditions: Compound concentration 1000.0 nM
[6] = target: Serine/threonine-protein kinase RIO3 (Homo sapiens) (UniProt O14730); conditions: Compound concentration 1000.0 nM
Serine/threonine-protein kinase RIO3 (Homo sapiens), sequence (O14730 whole entry): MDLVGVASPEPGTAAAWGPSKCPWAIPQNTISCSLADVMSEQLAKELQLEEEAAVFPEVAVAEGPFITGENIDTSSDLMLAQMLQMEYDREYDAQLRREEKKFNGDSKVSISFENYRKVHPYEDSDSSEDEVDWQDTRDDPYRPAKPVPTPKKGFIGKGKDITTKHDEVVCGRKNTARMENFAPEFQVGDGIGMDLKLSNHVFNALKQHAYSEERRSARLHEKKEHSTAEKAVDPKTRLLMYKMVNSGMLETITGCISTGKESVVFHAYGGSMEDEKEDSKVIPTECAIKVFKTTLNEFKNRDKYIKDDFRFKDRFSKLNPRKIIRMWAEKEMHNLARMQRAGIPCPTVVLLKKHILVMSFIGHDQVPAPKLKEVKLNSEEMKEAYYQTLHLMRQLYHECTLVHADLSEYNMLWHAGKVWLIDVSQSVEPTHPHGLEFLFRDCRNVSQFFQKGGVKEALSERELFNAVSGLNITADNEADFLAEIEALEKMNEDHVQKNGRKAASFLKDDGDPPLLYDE

[7] = target: Homeodomain-interacting protein kinase 3 (Homo sapiens) (UniProt Q9H422); conditions: Compound concentration 1000.0 nM
[8] = target: Histamine H3 receptor (Homo sapiens) (UniProt Q9Y5N1); conditions: Compound concentration 10.0 uM
[9] = target: Membrane-associated tyrosine- and threonine-specific cdc2-inhibitory kinase (Homo sapiens) (UniProt Q99640); conditions: Compound concentration 1000.0 nM
[10] = target: Mitogen-activated protein kinase kinase kinase 5 (Homo sapiens) (UniProt Q99683); conditions: Compound concentration 1000.0 nM
[11] = target: Receptor-interacting serine/threonine-protein kinase 4 (Homo sapiens) (UniProt P57078); conditions: Compound concentration 1000.0 nM
[12] = target: Ribosomal protein S6 kinase alpha-2 (Homo sapiens) (UniProt Q15349); conditions: Compound concentration 1000.0 nM
[13] = system: Epidermal growth factor receptor (Homo sapiens), P00533 [UNDEFINED MUTATION]; conditions: Compound concentration 1000.0 nM
[14] = target: Tyrosine-protein kinase ABL2 (Homo sapiens) (UniProt P42684); conditions: Compound concentration 1000.0 nM
[15] = target: Dual specificity testis-specific protein kinase 1 (Homo sapiens) (UniProt Q15569); conditions: Compound concentration 1000.0 nM
[16] = system: Receptor-type tyrosine-protein kinase FLT3 (Homo sapiens), P36888 [N841I]; conditions: Compound concentration 1000.0 nM
[17] = target: Proto-oncogene tyrosine-protein kinase receptor Ret (Homo sapiens) (UniProt P07949); conditions: Compound concentration 1000.0 nM
[18] = target: Protein kinase C theta type (Homo sapiens) (UniProt Q04759); conditions: Compound concentration 1000.0 nM
[19] = target: Tyrosine-protein kinase Lyn (Homo sapiens) (UniProt P07948); conditions: Compound concentration 1000.0 nM
[20] = target: Ephrin type-B receptor 2 (Homo sapiens) (UniProt P29323); conditions: Compound concentration 1000.0 nM
[21] = system: Hepatocyte growth factor receptor (Homo sapiens), P08581 [Y1235D]; conditions: Compound concentration 1000.0 nM
[22] = target: Ephrin type-A receptor 1 (Homo sapiens) (UniProt P21709); conditions: Compound concentration 1000.0 nM
[23] = target: Cyclin-dependent kinase-like 1 (Homo sapiens) (UniProt Q00532); conditions: Compound concentration 1000.0 nM
Cyclin-dependent kinase-like 1 (Homo sapiens), sequence (Q00532 whole entry): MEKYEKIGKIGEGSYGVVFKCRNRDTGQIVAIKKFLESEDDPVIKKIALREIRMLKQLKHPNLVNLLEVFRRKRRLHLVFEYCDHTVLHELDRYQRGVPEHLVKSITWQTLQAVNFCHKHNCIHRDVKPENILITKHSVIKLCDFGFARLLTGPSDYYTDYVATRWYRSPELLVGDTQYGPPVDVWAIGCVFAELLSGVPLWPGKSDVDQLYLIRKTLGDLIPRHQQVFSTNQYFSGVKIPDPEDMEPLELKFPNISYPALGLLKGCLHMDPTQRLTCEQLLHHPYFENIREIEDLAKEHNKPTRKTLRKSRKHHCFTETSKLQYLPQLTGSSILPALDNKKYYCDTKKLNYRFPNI

[24] = target: Ephrin type-B receptor 1 (Homo sapiens) (UniProt P54762); conditions: Compound concentration 1000.0 nM
[25] = target: Muscarinic acetylcholine receptor M5 (Homo sapiens) (UniProt P08912); conditions: Compound concentration 10.0 uM
[26] = target: Serine/threonine-protein kinase Nek5 (Homo sapiens) (UniProt Q6P3R8); conditions: Compound concentration 1000.0 nM
[27] = target: Serine/threonine-protein kinase SIK2 (Homo sapiens) (UniProt Q9H0K1); conditions: Compound concentration 1000.0 nM
[28] = target: Serine/threonine-protein kinase 32C (Homo sapiens) (UniProt Q86UX6); conditions: Compound concentration 1000.0 nM
[29] = target: Dual specificity protein kinase CLK1 (Homo sapiens) (UniProt P49759); conditions: Compound concentration 1000.0 nM
[30] = target: Ribosomal protein S6 kinase alpha-1 (Homo sapiens) (UniProt Q15418); conditions: Compound concentration 1000.0 nM
[31] = target: Sodium-dependent noradrenaline transporter (Homo sapiens) (UniProt P23975); conditions: Compound concentration 10.0 uM
Sodium-dependent noradrenaline transporter (Homo sapiens), sequence (P23975 whole entry): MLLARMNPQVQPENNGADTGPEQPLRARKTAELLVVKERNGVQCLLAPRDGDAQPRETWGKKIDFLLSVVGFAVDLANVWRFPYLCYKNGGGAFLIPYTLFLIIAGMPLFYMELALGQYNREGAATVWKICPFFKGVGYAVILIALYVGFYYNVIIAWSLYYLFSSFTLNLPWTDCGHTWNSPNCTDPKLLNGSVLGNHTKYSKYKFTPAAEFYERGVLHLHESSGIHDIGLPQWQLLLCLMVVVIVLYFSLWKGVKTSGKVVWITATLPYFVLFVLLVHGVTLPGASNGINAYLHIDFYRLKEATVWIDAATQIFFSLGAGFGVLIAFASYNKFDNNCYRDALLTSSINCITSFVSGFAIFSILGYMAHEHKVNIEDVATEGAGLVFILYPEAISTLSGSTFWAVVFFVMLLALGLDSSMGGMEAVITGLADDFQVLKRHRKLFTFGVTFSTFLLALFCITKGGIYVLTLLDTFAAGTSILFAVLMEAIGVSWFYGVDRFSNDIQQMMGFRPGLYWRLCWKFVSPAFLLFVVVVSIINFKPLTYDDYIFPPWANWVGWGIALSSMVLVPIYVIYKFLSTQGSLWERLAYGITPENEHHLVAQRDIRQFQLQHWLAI

[32] = target: BMP-2-inducible protein kinase (Homo sapiens) (UniProt Q9NSY1); conditions: Compound concentration 1000.0 nM
[33] = target: RAC-gamma serine/threonine-protein kinase (Homo sapiens) (UniProt Q9Y243); conditions: Compound concentration 1000.0 nM
[34] = target: NUAK family SNF1-like kinase 2 (Homo sapiens) (UniProt Q9H093); conditions: Compound concentration 1000.0 nM
NUAK family SNF1-like kinase 2 (Homo sapiens), sequence (Q9H093 whole entry): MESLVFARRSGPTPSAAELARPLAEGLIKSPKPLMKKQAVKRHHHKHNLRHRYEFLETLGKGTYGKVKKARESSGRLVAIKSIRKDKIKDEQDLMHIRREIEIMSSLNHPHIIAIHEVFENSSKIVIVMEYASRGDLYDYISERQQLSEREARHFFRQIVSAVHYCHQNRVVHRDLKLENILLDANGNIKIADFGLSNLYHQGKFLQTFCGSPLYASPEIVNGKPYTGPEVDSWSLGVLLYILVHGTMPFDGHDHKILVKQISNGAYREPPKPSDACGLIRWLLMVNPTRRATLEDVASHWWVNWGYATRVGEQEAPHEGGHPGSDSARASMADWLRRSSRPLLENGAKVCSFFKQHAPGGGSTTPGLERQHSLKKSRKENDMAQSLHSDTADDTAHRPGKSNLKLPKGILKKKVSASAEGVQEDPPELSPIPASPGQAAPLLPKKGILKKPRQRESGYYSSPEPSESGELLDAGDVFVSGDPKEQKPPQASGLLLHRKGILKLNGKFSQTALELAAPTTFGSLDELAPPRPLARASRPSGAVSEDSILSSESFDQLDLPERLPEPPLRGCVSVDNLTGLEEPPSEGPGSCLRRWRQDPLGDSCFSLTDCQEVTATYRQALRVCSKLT

[35] = system: Mast/stem cell growth factor receptor Kit (Homo sapiens), P10721 [V559D]; conditions: Compound concentration 1000.0 nM
[36] = target: 1-phosphatidylinositol 3-phosphate 5-kinase (Homo sapiens) (UniProt Q9Y2I7); conditions: Compound concentration 1000.0 nM
[37] = target: Mitogen-activated protein kinase kinase kinase 3 (Homo sapiens) (UniProt Q99759); conditions: Compound concentration 1000.0 nM
[38] = target: Mitogen-activated protein kinase kinase kinase kinase 2 (Homo sapiens) (UniProt Q12851); conditions: Compound concentration 1000.0 nM
Mitogen-activated protein kinase kinase kinase kinase 2 (Homo sapiens), sequence (Q12851 whole entry): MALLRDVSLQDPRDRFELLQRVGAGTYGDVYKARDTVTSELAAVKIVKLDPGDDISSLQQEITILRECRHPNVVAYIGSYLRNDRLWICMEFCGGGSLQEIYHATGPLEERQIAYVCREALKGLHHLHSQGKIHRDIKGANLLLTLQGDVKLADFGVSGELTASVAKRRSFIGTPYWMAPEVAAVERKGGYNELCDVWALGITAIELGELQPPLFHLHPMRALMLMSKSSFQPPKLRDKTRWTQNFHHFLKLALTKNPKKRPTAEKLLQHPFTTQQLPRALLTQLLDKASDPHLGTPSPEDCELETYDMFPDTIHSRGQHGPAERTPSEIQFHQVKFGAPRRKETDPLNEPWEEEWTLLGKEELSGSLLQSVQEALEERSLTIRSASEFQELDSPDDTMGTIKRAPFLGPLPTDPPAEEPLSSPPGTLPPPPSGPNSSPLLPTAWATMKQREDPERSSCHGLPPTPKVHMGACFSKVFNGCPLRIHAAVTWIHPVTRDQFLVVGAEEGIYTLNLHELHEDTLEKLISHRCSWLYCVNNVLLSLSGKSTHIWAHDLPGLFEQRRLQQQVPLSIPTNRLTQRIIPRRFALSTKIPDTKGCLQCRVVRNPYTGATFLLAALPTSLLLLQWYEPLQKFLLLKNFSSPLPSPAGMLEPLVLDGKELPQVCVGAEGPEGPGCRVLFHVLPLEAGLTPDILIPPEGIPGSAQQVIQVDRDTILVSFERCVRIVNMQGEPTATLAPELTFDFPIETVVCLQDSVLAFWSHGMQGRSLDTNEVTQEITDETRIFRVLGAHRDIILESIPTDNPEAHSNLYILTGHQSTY

[39] = target: Serine/threonine-protein kinase mTOR (Homo sapiens) (UniProt P42345); conditions: Compound concentration 1000.0 nM
[40] = target: Serine/threonine-protein kinase D3 (Homo sapiens) (UniProt O94806); conditions: Compound concentration 1000.0 nM
[41] = target: Casein kinase I isoform gamma-2 (Homo sapiens) (UniProt P78368); conditions: Compound concentration 1000.0 nM
[42] = target: Ephrin type-B receptor 4 (Homo sapiens) (UniProt P54760); conditions: Compound concentration 1000.0 nM
Ephrin type-B receptor 4 (Homo sapiens), sequence (P54760 whole entry): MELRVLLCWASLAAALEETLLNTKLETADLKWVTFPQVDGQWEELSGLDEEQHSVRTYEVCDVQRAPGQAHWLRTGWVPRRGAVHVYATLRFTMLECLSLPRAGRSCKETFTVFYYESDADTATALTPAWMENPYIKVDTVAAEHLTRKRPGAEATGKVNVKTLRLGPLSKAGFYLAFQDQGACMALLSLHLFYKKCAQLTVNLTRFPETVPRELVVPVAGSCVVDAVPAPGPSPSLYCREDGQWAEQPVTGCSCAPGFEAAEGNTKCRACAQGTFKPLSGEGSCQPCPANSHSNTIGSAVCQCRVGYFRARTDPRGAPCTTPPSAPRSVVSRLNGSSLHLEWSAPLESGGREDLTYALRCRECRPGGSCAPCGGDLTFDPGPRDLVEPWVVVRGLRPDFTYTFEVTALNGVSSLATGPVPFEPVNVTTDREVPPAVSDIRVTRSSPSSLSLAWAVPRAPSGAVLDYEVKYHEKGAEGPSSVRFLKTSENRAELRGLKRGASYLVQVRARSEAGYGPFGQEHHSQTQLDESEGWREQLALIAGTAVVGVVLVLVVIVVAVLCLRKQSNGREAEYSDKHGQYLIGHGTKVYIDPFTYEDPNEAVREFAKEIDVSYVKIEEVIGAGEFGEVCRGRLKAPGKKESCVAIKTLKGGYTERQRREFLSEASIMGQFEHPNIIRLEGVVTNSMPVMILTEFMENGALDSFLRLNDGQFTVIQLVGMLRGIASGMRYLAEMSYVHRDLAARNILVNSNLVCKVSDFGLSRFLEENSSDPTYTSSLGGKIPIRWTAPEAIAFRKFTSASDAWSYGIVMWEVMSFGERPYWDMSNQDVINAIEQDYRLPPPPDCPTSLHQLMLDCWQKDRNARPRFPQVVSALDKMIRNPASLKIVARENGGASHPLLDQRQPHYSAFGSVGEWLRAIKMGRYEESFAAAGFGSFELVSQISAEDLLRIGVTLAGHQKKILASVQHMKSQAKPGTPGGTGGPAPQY

[43] = target: Serine/threonine-protein kinase D2 (Homo sapiens) (UniProt Q9BZL6); conditions: Compound concentration 1000.0 nM
[44] = target: Activin receptor type-2A (Homo sapiens) (UniProt P27037); conditions: Compound concentration 1000.0 nM
Activin receptor type-2A (Homo sapiens), sequence (P27037 whole entry): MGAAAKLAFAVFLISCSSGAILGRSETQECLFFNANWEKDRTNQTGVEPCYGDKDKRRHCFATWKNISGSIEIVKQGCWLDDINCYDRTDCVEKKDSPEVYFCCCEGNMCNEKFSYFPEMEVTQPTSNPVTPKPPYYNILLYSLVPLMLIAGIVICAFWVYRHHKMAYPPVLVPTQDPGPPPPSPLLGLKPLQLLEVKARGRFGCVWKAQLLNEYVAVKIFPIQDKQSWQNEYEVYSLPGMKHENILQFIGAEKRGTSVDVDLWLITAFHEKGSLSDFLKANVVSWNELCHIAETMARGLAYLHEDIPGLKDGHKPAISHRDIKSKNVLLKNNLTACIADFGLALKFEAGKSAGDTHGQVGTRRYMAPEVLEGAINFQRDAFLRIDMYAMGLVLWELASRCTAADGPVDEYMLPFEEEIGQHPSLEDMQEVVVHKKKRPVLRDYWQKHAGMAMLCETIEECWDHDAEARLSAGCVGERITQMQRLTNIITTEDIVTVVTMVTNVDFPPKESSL

[45] = target: Serine/threonine-protein kinase 16 (Homo sapiens) (UniProt O75716); conditions: Compound concentration 1000.0 nM

With `Nc1cnc(N2CCc3cc(S(=O)(=O)Nc4c(F)cc(Cl)cc4F)cc(N4CCCC4=O)c32)nc1` as the compound, how does the residual activity [1] read?
Its residual activity is 100%.

And the residual activity [2]?
Its residual activity is 100%.

And the residual activity [3]?
Its residual activity is 91%.

And the inhibition [4]?
The inhibition was -8.35%.

And the residual activity [5]?
The residual activity was 93%.

And the residual activity [6]?
The residual activity was 100%.

And the residual activity [7]?
The residual activity was 100%.

What about the inhibition [8] of the same compound?
Its inhibition is -1.21%.

What about the residual activity [9] of the same compound?
Its residual activity is 99%.

And the residual activity [10]?
Its residual activity is 83%.

And the residual activity [11]?
Its residual activity is 76%.

What about the residual activity [12] of the same compound?
The residual activity was 100%.

What about the residual activity [13] of the same compound?
The residual activity was 74%.

And the residual activity [14]?
The residual activity was 95%.

What about the residual activity [15] of the same compound?
The residual activity was 100%.

What about the residual activity [16] of the same compound?
Its residual activity is 89%.

And the residual activity [17]?
The residual activity was 89%.

What about the residual activity [18] of the same compound?
Its residual activity is 89%.

And the residual activity [19]?
The residual activity was 88%.

What about the residual activity [20] of the same compound?
Its residual activity is 87%.

What about the residual activity [21] of the same compound?
The residual activity was 69%.

And the residual activity [22]?
Its residual activity is 99%.

What about the residual activity [23] of the same compound?
The residual activity was 85%.

What about the residual activity [24] of the same compound?
The residual activity was 92%.

What about the inhibition [25] of the same compound?
The inhibition was 1.45%.

What about the residual activity [26] of the same compound?
The residual activity was 100%.

What about the residual activity [27] of the same compound?
The residual activity was 100%.

And the residual activity [28]?
Its residual activity is 100%.

And the residual activity [29]?
The residual activity was 85%.

And the residual activity [30]?
Its residual activity is 100%.

And the inhibition [31]?
The inhibition was 18.2%.

What about the residual activity [32] of the same compound?
Its residual activity is 88%.

What about the residual activity [33] of the same compound?
Its residual activity is 94%.

What about the residual activity [34] of the same compound?
Its residual activity is 100%.

And the residual activity [35]?
Its residual activity is 100%.

What about the residual activity [36] of the same compound?
Its residual activity is 100%.

And the residual activity [37]?
The residual activity was 97%.

And the residual activity [38]?
The residual activity was 90%.

What about the residual activity [39] of the same compound?
Its residual activity is 100%.

What about the residual activity [40] of the same compound?
The residual activity was 88%.

What about the residual activity [41] of the same compound?
Its residual activity is 88%.

What about the residual activity [42] of the same compound?
The residual activity was 100%.

What about the residual activity [43] of the same compound?
Its residual activity is 100%.

And the residual activity [44]?
The residual activity was 67%.

What about the residual activity [45] of the same compound?
Its residual activity is 100%.

What does the source list for `Cn1nc(C(F)(F)F)cc1-c1cnc(N2CCc3cc(S(=O)(=O)Nc4c(F)cc(Cl)cc4F)cc(N4CCCC4=O)c32)nc1` [TP-020]?
residual activity [1]: 94%; residual activity [2]: 34%; residual activity [3]: 100%; inhibition [4]: -6.95%; residual activity [5]: 84%; residual activity [6]: 100%; residual activity [7]: 85%; inhibition [8]: 0.43%; residual activity [9]: 93%; residual activity [10]: 100%; residual activity [11]: 67%; residual activity [12]: 77%; residual activity [13]: 100%; residual activity [14]: 100%; residual activity [15]: 86%; residual activity [16]: 94%; residual activity [17]: 87%; residual activity [18]: 100%; residual activity [19]: 100%; residual activity [20]: 100%; residual activity [21]: 94%; residual activity [22]: 100%; residual activity [23]: 77%; residual activity [24]: 100%; inhibition [25]: 7.43%; residual activity [26]: 86%; residual activity [27]: 100%; residual activity [28]: 100%; residual activity [29]: 87%; residual activity [30]: 96%; inhibition [31]: 5.69%; residual activity [32]: 92%; residual activity [33]: 84%; residual activity [34]: 89%; residual activity [35]: 99%; residual activity [36]: 88%; residual activity [37]: 89%; residual activity [38]: 95%; residual activity [39]: 78%; residual activity [40]: 100%; residual activity [41]: 100%; residual activity [42]: 99%; residual activity [43]: 95%; residual activity [44]: 83%; residual activity [45]: 92%
